Laboratory results taken from paper PMC6154694, “Absorption, Metabolic Stability, and Pharmacokinetics of Ginger Phytochemicals” (Molecules : A Journal of Synthetic Chemistry and Natural …, 2017).

What was measured:
[1] = pH dependent kinetic solubility in hydrochloride, citrate and phosphate buffers; assay type: physicochemical; details: 23 °C, kinetic from dmso stock, tested 10 to 100 µM, n = 2
Description: Calibration standards were prepared by spiking 5 μL of DMSO stock solutions into 995 μL acetonitrile/buffer (1:1) mixture. Following centrifugation (10,000 rpm, 10 min, 25 °C) the reaction samples were diluted 1:1 with acetonitrile.

[2] = Mouse pharmacokinetic study of oral GE with and without ketoconazole, plasma with and without β-glucuronidase treatment; assay type: in vivo, male mice (C57BL6J); details: for Concentration Ratio (Total/Free) of GE Phenolics: GE administered group; for Concentration Ratio (Total/Free) of GE Phenolics / concentration at 0 h / concentration at 0.087 h / concentration at 0.167 h / concentration at 0.25 h / concentration at 0.5 h / concentration at 1 h / concentration at 2 h / concentration at 3 h / concentration at 4 h / concentration at 6 h / concentration at 8 h / concentration at 12 h: mouse plasma; for AUC(0-t) / Cmax / Tmax / concentration at 0 h / concentration at 0.087 h / concentration at 0.167 h / concentration at 0.25 h / concentration at 0.5 h / concentration at 1 h / concentration at 2 h / concentration at 3 h / concentration at 4 h / concentration at 6 h / concentration at 8 h / concentration at 12 h: male, C57BL6J; for AUC(0-t) / Cmax / Tmax: mouse, plasma, po, 250 mg/kg
Description: A solution formulation of GE was prepared by using 5% ethanol, 5% Tween 80, 40% polyethylene glycol, and 50% corn oil. The dose volume was 10 mL/kg and the dose administered was 250 mg/kg GE.
Pharmacokinetic study in male mice (C57BL6J, Harlan Laboratories, Indianapolis, IN, USA) was run with 36 animals in each group at a GE dose of 250 mg/kg with a dose volume of 10 mL/kg. One group was given GE alone and in the second group GE was co-administered with KTZ (50 mg/kg). A terminal sampling design was used to collect blood samples at 0 (pre-dose), 0.08, 0.16, 0.25, 0.5, 1, 2, 3, 4, 6, 8, and 12 h. At each time, 1 mL of blood was collected in ethylenediaminetetraacetic acid di-potassium salt (K2EDTA) tubes (BD Biosciences, Franklin Lakes, NJ, USA). Plasma was separated by centrifugation of samples at 4000 rpm for 10 min and stored below −60 °C till bioanalysis. All experiments were performed with approval from the Institutional Animal Care and Use Committee (IACUC, approval code: A14031). All animals were acclimatized for five days before dosing in the experimental area. Food and water was provided ad libitum throughout the study period. Animals were marked and housed (three per cage, n = 36 per group) in polypropylene cages and maintained in controlled environmental conditions with 12 h light and dark cycles. The temperature and humidity of the room was maintained between 22 ± 3 °C and 30% to 50%, respectively, and approximately 10–12 fresh air change cycles per hour.
To confirm the presence of GE glucuronide conjugates, plasma (100 μL) was treated with βgd (20 μL, 500 units) and incubated at 37 °C for 1 h. Each sample was analyzed twice with and without β-gd treatment. Samples without gde treatment were diluted with 20 μL of buffer. Total (conjugated + free) and free ginger phenolics data were reported following bioanalysis.
All in vitro and in vivo samples were processed by protein precipitation method. An aliquot (100 μL) of the sample was spiked with 200 μL of acetonitrile containing dihydrocapsaicin as internal standard (IS) and vortex mixed for 3 min. The tubes were centrifuged at 12,000 rpm for 10 min and an aliquot of supernatant was transferred into autosampler vials for analysis. The stock solutions of 6G, 8G, 10G, and 6S were prepared in ACN/water (70:30) at 1 mg/mL. A calibration curve (CC) range of 2–2000 ng/mL was employed for the quantification of analytes and IS concentration was 150 ng/mL for each analysis. The CC consisted of blank, blank with IS and seven non-zero calibration standards. The calibration standards were within ±15% of the nominal concentration and lower limit of quantification was within ±20% of nominal. All samples were analyzed using liquid chromatography tandem mass spectrometry (LC-MS/MS) method (Agilent 6410 series, Santa Clara, CA, USA). A positive ionization mode with multiple reaction monitoring (MRM, m/z Q1/Q3) of 6G (m/z 277.1/177.1, retention time (RT) 2.0 min), 8G (m/z 305.1/177.1, RT 4.0 min), 10G (m/z 333.1/177.1, RT 7.7 min), 6S (m/z 277.1/137.1, RT 5.1 min), and IS (m/z 308.2/137.1, RT 3.4 min) was employed. The ion spray voltage was set at 3500 V, ionization temperature was set to 300 °C and drying gas flow rate was 10 L/min. Data acquisition and quantitation were performed using Mass Hunter software (Agilent Technologies, Wilmington, DE, USA). Separation was achieved using HP1100 series LC (Agilent Technologies) with an Agilent Zorbax reversed-phase (SB-C18, 2.1 × 50 mm, 5.0 μm) column. A gradient method was employed to separate the individual GE phenolics using mobile phase A (0.1% formic acid in water) and mobile phase B (Acetonitrile). The gradient elution method with 50% B at 0 min, 90% B at 5 min, held for 2.1 min, back to 50% B at 7.1 min with a flow rate of 0.2 mL/min. An injection volume of 2 μL was used for analysis. […]

[3] = Liver microsomal stability, rat; assay type: in vitro ADME, IGS Sprague-Dawley rat; details: protein 0.5 mg/mL
Description: Pooled liver microsomes from CD1 mouse, IGS Sprague-Dawley rat, Beagle dog, and mixed gender human were used for assays. Incubations (1 mL) consisted of liver microsomes (0.5 mg/mL), NADPH (1 mM) and 100 mM sodium phosphate buffer (pH 7.4). Following pre-incubation (10 min, 37 °C), reactions were initiated by spiking ACN/DMSO (80:20) stock solutions of GE phenolics (5 μL, 10 μM). Samples (100 μL) were withdrawn at 0, 5, 10, 15, 20 and 30 min and quenched with 200 μL acetonitrile containing internal standard. Concomitant NADPH-free control incubations were prepared similarly.

[4] = 250 mg/kg GE + 50 mg/kg KTZ oral, +KTZ −βgd

solubility at 2 h ([1]; 100 mM citrate buffer, aqueous buffer, pH 4, citrate buffer): > 100 µM | solubility at 2 h ([1]; 100 mM phosphate buffer, aqueous buffer, pH 7.4, phosphate buffer): > 100 µM | solubility at 2 h ([1]; simulated gastric fluid, pH 2, hydrochloride buffer): > 100 µM | AUClast Ratio ([2]; +KTZ +βgd, reference GE group co-administered with KTZ untreated with βgd): 63 | AUClast Ratio ([2]; +KTZ +βgd, reference GE group untreated with βgd): 498 | AUClast Ratio ([2]; +KTZ −βgd, reference GE group untreated with βgd): 8 | Concentration Ratio (Total/Free) of GE Phenolics ([2]; 0 h): 0 | Concentration Ratio (Total/Free) of GE Phenolics ([2]; 0.087 h): 0 | Concentration Ratio (Total/Free) of GE Phenolics ([2]; 0.167 h): 0 | Concentration Ratio (Total/Free) of GE Phenolics ([2]; 0.25 h): 3659 | Concentration Ratio (Total/Free) of GE Phenolics ([2]; 0.5 h): 8723 | Concentration Ratio (Total/Free) of GE Phenolics ([2]; 1 h): 0 | Concentration Ratio (Total/Free) of GE Phenolics ([2]; 2 h): 53 | Concentration Ratio (Total/Free) of GE Phenolics ([2]; 3 h): 290 | Concentration Ratio (Total/Free) of GE Phenolics ([2]; 4 h): 491 | Concentration Ratio (Total/Free) of GE Phenolics ([2]; 6 h): 391 | Concentration Ratio (Total/Free) of GE Phenolics ([2]; 8 h): 0 | Concentration Ratio (Total/Free) of GE Phenolics ([2]; 12 h): 0 | AUC(0-t) ([2]; 250 mg/kg GE oral, −βgd): 0.0377 µg·h/mL | Cmax ([2]; 250 mg/kg GE oral, −βgd): 27.2 ng/mL | Tmax ([2]; 250 mg/kg GE oral, −βgd): 2 h | AUC(0-t) [2, 4]: 0.3 µg·h/mL | Cmax [2, 4]: 257 ng/mL | Tmax [2, 4]: 0.5 h | concentration at 0 h ([2]; 250 mg/kg GE oral, 0 h, −βgd): 0 µg/mL | concentration at 0.087 h ([2]; 250 mg/kg GE oral, 0.087 h, −βgd): 0 ng/mL | concentration at 0.167 h ([2]; 250 mg/kg GE oral, 0.167 h, −βgd): 0.11 ± 0.08 ng/mL | concentration at 0.25 h ([2]; 250 mg/kg GE oral, 0.25 h, −βgd): 2.25 ± 1.73 ng/mL | concentration at 0.5 h ([2]; 250 mg/kg GE oral, 0.5 h, −βgd): 1.79 ± 1.82 ng/mL | concentration at 1 h ([2]; 250 mg/kg GE oral, 1 h, −βgd): 1.04 ± 0.79 ng/mL | concentration at 2 h ([2]; 250 mg/kg GE oral, 2 h, −βgd): 27.2 ± 38.4 ng/mL | concentration at 3 h ([2]; 250 mg/kg GE oral, 3 h, −βgd): 2.45 ± 1.73 ng/mL | concentration at 4 h ([2]; 250 mg/kg GE oral, 4 h, −βgd): 0.82 ± 1.16 ng/mL | concentration at 6 h ([2]; 250 mg/kg GE oral, 6 h, −βgd): 3.22 ± 4.03 ng/mL | concentration at 8 h ([2]; 250 mg/kg GE oral, 8 h, −βgd): 0.77 ± 0.57 ng/mL | concentration at 12 h ([2]; 250 mg/kg GE oral, 12 h, −βgd): 0.33 ± 0.44 ng/mL | concentration at 0 h ([2]; 250 mg/kg GE with 50 mg/kg ketoconazole oral, 0 h, −βgd): 0 µg/mL | concentration at 0.087 h ([2]; 250 mg/kg GE with 50 mg/kg ketoconazole oral, 0.087 h, −βgd): 0.31 ± 0.44 ng/mL | concentration at 0.167 h ([2]; 250 mg/kg GE with 50 mg/kg ketoconazole oral, 0.167 h, −βgd): 5.71 ± 4.25 ng/mL | concentration at 0.25 h ([2]; 250 mg/kg GE with 50 mg/kg ketoconazole oral, 0.25 h, −βgd): 35.9 ± 44.5 ng/mL | concentration at 0.5 h ([2]; 250 mg/kg GE with 50 mg/kg ketoconazole oral, 0.5 h, −βgd): 37900 ng/mL | concentration at 1 h ([2]; 250 mg/kg GE with 50 mg/kg ketoconazole oral, 1 h, −βgd): 104 ± 110 ng/mL | concentration at 2 h ([2]; 250 mg/kg GE with 50 mg/kg ketoconazole oral, 2 h, −βgd): 70900 ng/mL | concentration at 3 h ([2]; 250 mg/kg GE with 50 mg/kg ketoconazole oral, 3 h, −βgd): 65.2 ± 54.3 ng/mL | concentration at 4 h ([2]; 250 mg/kg GE with 50 mg/kg ketoconazole oral, 4 h, −βgd): 5.87 ± 1.18 ng/mL | concentration at 6 h ([2]; 250 mg/kg GE with 50 mg/kg ketoconazole oral, 6 h, −βgd): 1.09 ± 0.93 ng/mL | concentration at 8 h ([2]; 250 mg/kg GE with 50 mg/kg ketoconazole oral, 8 h, −βgd): 10.4 ± 11.1 ng/mL | concentration at 12 h ([2]; 250 mg/kg GE with 50 mg/kg ketoconazole oral, 12 h, −βgd): 0.74 ± 1.05 ng/mL | remaining at 0.5 h, 10 µM ([3]; IGS Sprague-Dawley, pooled liver microsomes, pH 7.4, substrate 10 µM, n = 2, read-out: % Remaining at 30 min): 50% | Intrinsic Clearance ([3]; rat liver microsomes, substrate 10 µM, 45 mg protein/g liver): 11.2 mL/min/g Liver
Compound: CCCCC[C@H](O)CC(=O)CCc1ccc(O)c(OC)c1 [6G, 6-gingerol]
